Measurements: PubChem BioAssay (NCI)
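GI50 marks 50% less growth. Definition used: TGI = concentration required for complete inhibition of growth.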

Assays:
Assay in all cases: growth of human tumour cells (NCI), 384-well format
[1] = test system: MALME-3M melanoma
[2] = test system: NCI-H460 NSCLC
[3] = test system: IGROV1 ovarian
[4] = test system: SN12C renal
[5] = test system: RPMI-8226 leukemia
[6] = test system: NCI-H322M lung
[7] = test system: NCI/ADR-RES ovarian
[8] = test system: EKVX NSCLC
[9] = test system: ACHN renal
[10] = test system: A498 renal
[11] = test system: OVCAR-4 ovarian
[12] = test system: SF-268 CNS
[13] = test system: SW-620 colon
[14] = test system: MCF7 breast
[15] = test system: M14 melanoma
[16] = test system: HS 578T breast
[17] = test system: SK-MEL-2 melanoma
[18] = test system: SK-OV-3 ovarian
[19] = test system: MOLT-4 leukemia
[20] = test system: UO-31 renal
[21] = test system: CCRF-CEM leukemia
[22] = test system: HCT-116 colon
[23] = test system: COLO 205 colon
[24] = test system: MDA-MB-468 breast
[25] = test system: KM12 colon
[26] = test system: TK-10 renal
[27] = test system: 786-0 renal
[28] = test system: T-47D breast
[29] = test system: SR leukemia
[30] = test system: LOX IMVI melanoma
[31] = test system: SNB-75 CNS
[32] = test system: SNB-19 CNS
[33] = test system: NCI-H522 lung
[34] = test system: RXF 393 renal
[35] = test system: CAKI-1 renal
[36] = test system: SK-MEL-28 melanoma
[37] = test system: HCC-2998 colon
[38] = test system: A549 NSCLC
[39] = test system: SK-MEL-5 melanoma
[40] = test system: BT-549 breast
[41] = test system: HL-60(TB) leukemia
[42] = test system: K-562 leukemia
[43] = test system: UACC-62 melanoma
[44] = test system: NCI-H226 lung
[45] = test system: HOP-62 NSCLC
[46] = test system: OVCAR-3 ovarian
[47] = test system: MDA-MB-435 melanoma

COc1ccc2c(Oc3ccc(NC(=O)c4c(C)n(CC(C)(C)O)n(-c5ccccc5)c4=O)nc3)ccnc2c1
GI50 [1]: 5.26 µM | TGI [1]: 60 µM | GI50 [2]: 14.3 µM | TGI [2]: > 100 µM | GI50 [3]: 9.46 µM | TGI [3]: > 100 µM | GI50 [4]: 2.24 µM | TGI [4]: 86.8 µM | GI50 [5]: 6.85 µM | TGI [5]: 19.4 µM | GI50 [6]: 10.3 µM | TGI [6]: > 100 µM | GI50 [7]: 25.7 µM | TGI [7]: > 100 µM | GI50 [8]: 37.3 µM | TGI [8]: > 100 µM | GI50 [9]: 5.81 µM | TGI [9]: > 100 µM | GI50 [10]: 4.43 µM | TGI [10]: > 100 µM | GI50 [11]: 15.2 µM | TGI [11]: > 100 µM | GI50 [12]: 19.9 µM | TGI [12]: > 100 µM | GI50 [13]: 56.2 µM | TGI [13]: > 100 µM | GI50 [14]: 46.4 µM | TGI [14]: > 100 µM | GI50 [15]: 6.34 µM | TGI [15]: 70.2 µM | GI50 [16]: 4.65 µM | TGI [16]: 34.6 µM | GI50 [17]: 13 µM | TGI [17]: 33.4 µM | GI50 [18]: 4.04 µM | TGI [18]: > 100 µM | GI50 [19]: 3.58 µM | TGI [19]: 12.4 µM | GI50 [20]: 18.4 µM | TGI [20]: > 100 µM | GI50 [21]: 10.3 µM | TGI [21]: 22 µM | GI50 [22]: 10.5 µM | TGI [22]: 30.2 µM | GI50 [23]: 42.2 µM | TGI [23]: > 100 µM | GI50 [24]: 22.9 µM | TGI [24]: > 100 µM | GI50 [25]: 0.73 µM | TGI [25]: > 100 µM | GI50 [26]: 10.8 µM | TGI [26]: 100 µM | GI50 [27]: 19.8 µM | TGI [27]: > 100 µM | GI50 [28]: 33.7 µM | TGI [28]: > 100 µM | GI50 [29]: 6.58 µM | TGI [29]: 19 µM | GI50 [30]: 47.2 µM | TGI [30]: > 100 µM | GI50 [31]: 7.61 µM | TGI [31]: 53.1 µM | GI50 [32]: 34.1 µM | TGI [32]: > 100 µM | GI50 [33]: 14.4 µM | TGI [33]: 54.1 µM | GI50 [34]: 2.42 µM | TGI [34]: 9.27 µM | GI50 [35]: 3.45 µM | TGI [35]: > 100 µM | GI50 [36]: 25.2 µM | TGI [36]: 84.8 µM | GI50 [37]: > 100 µM | TGI [37]: > 100 µM | GI50 [38]: 16.8 µM | TGI [38]: > 100 µM | GI50 [39]: 13.8 µM | TGI [39]: > 100 µM | GI50 [40]: 11.5 µM | TGI [40]: 25.7 µM | GI50 [41]: 5.49 µM | TGI [41]: 14.9 µM | GI50 [42]: 1.16 µM | TGI [42]: 2510 nM | GI50 [43]: 4.99 µM | TGI [43]: 24 µM | GI50 [44]: 22.6 µM | TGI [44]: > 100 µM | GI50 [45]: 15.3 µM | TGI [45]: > 100 µM | GI50 [46]: 13 µM | TGI [46]: 31.6 µM | GI50 [47]: 12.3 µM | TGI [47]: 53.7 µM

Cn1cc(-c2ccc(-c3cncc(Cl)c3N3CCC4(CCNC4=O)CC3)cc2)cn1
GI50 [1]: 30.3 µM | TGI [1]: > 100 µM | GI50 [2]: 21.1 µM | TGI [2]: 62.2 µM | GI50 [3]: 25.2 µM | TGI [3]: > 100 µM | GI50 [4]: 45.2 µM | TGI [4]: > 100 µM | GI50 [5]: 1.17 µM | TGI [5]: 18.4 µM | GI50 [6]: 22.3 µM | TGI [6]: > 95.3 µM | GI50 [7]: 22.1 µM | TGI [7]: > 71.5 µM | GI50 [8]: 20.8 µM | TGI [8]: 78.8 µM | GI50 [9]: 15.4 µM | TGI [9]: 81.9 µM | GI50 [10]: 4.45 µM | TGI [10]: 33.1 µM | GI50 [11]: 39.6 µM | TGI [11]: > 90 µM | GI50 [12]: 45.8 µM | TGI [12]: > 100 µM | GI50 [13]: 12.3 µM | TGI [13]: > 86.5 µM | GI50 [14]: 15.9 µM | TGI [14]: 52.8 µM | GI50 [15]: 39.4 µM | TGI [15]: > 100 µM | GI50 [16]: 49.1 µM | TGI [16]: > 100 µM | GI50 [17]: 16.9 µM | TGI [17]: 39.2 µM | GI50 [18]: 34 µM | TGI [18]: > 100 µM | GI50 [19]: 6.92 µM | TGI [19]: 24.2 µM | GI50 [20]: 26.9 µM | TGI [20]: > 100 µM | GI50 [21]: 8.63 µM | TGI [21]: 23.9 µM | GI50 [22]: 13.8 µM | TGI [22]: 47.3 µM | GI50 [23]: 16.3 µM | TGI [23]: > 60 µM | GI50 [24]: 3.15 µM | TGI [24]: 18.4 µM | GI50 [25]: 21.3 µM | TGI [25]: > 94.3 µM | GI50 [26]: 11.2 µM | TGI [26]: 99.9 µM | GI50 [27]: 11.8 µM | TGI [27]: > 92.2 µM | GI50 [28]: 13.5 µM | TGI [28]: 48.4 µM | TGI [29]: 0.485 µM | GI50 [30]: 29.5 µM | TGI [30]: > 75.1 µM | GI50 [31]: 40 µM | TGI [31]: > 95.9 µM | GI50 [32]: 47.4 µM | TGI [32]: > 100 µM | GI50 [33]: 13.1 µM | TGI [33]: 48.2 µM | GI50 [34]: 14.7 µM | TGI [34]: > 96.1 µM | GI50 [35]: 22.5 µM | TGI [35]: > 100 µM | GI50 [36]: 20 µM | TGI [36]: > 65.3 µM | GI50 [37]: 15.5 µM | TGI [37]: 47.9 µM | GI50 [38]: 24.5 µM | TGI [38]: 98 µM | GI50 [39]: 15.6 µM | TGI [39]: 33.5 µM | GI50 [40]: 19.9 µM | TGI [40]: 58.5 µM | GI50 [41]: 1.73 µM | TGI [41]: 5.74 µM | GI50 [42]: 19 µM | TGI [42]: > 100000 nM | GI50 [43]: 20.1 µM | TGI [43]: 58.1 µM | GI50 [44]: 18.6 µM | TGI [44]: 59.8 µM | GI50 [45]: 15.2 µM | TGI [45]: 39.9 µM | GI50 [46]: 17.3 µM | TGI [46]: 51.3 µM | GI50 [47]: 30.1 µM | TGI [47]: > 91.6 µM
